{"source": "patent US20090253709A1", "about": "(NATIONAL DEFENSE MEDICAL CENTER, priority 2008, published 2009)", "key": {"H1299": {"test_system": "H1299", "assay": "MTT assay in H1299 cells", "format": "cell-based", "protocol": "H1299 is a non-small cell lung cancer cell line with telomerase activity. The cell extract of H1299 cell lines can be used for selecting the telomerase activity inhibitors in vitro and the telomerase activity-inhibited substances in vivo. H1299 cell line was incubated with RPMI 1640 medium supplemented with 10% of fetal bovine serum (FBS). A total of 2×10^3 […] cells were seeded in the 96-well cell culture plate, and incubated with DMEM (GIBCO®)/glucose mixture and Medium 199 (GIBCO®)/10% FBS/1 mM sodium pyruvate (GIBCO®)/4 mM L-glutamine (GIBCO®) mixture at a ratio of 4:1 at 37° C. for 24 hours. […] After 48 hours of drug treatment, the cultured medium were collected for performing the analysis of SEAP activity. The cells were washed with 1×PBS once immediately, and the MTT assay was performed to compare the compounds with the relative toxicity or the influence to the proliferation and activity. Mitochondria is the place for cellular respiration, and there are many reductive reactions catalyzed by dehydrogenases. MTT is a water-soluble yellow compound, and the […] will be formed after reduction. This crystal can be dissolved in the organic solvent, and has high absorbance at the wavelength of 570 nm. The higher cellular activity or more cell numbers, the more generated crystal violets. Therefore, the cellular activity and cell number can be obtained by the MTT assay. MTT solution was prepared by dissolving MTT powder in PBS solution to achieve 5 mg/ml, filtrated and stored at 4° C. Lysis buffer contained 20% (w/v) of SDS in 50% of N,N-dimethylformamide (DMF, Riedel-deHaën). After the cells were incubated in the 96-well culture plate, the original medium was discarded, 100 μl of the fresh serum-free medium per well and 25 μl of MTT solution per well were added in respectively, and the cells were further incubated in the CO2 incubator at 37° C. for 4 hours. Then, 100 μl of lysis buffer per well was added in and incubated overnight in the CO2 incubator at 37° C. The absorbance at 570 nm was determined by the ELISA reader. The selection of telomerase inhibitors of the anthraquinone compounds provided in the present invention was performed by the […]-driven SEAP system. SEAP is the communication gene in this drug selection model. The SEAP inhibition was shown as follows. […] Subsequently, the linear slope of absorbance to the measuring time was calculated, and the variance of absorbance at 405 nm per minute was represented and compared with the SEAP-producing result of drug-untreated H1299 cells. In addition, the influence of the cell-treated drug solution to the cellular proliferation and the drug toxicity to the cells were considered, and the cellular growth was evaluated by the MTT assay. The drug-treated cells were analyzed by the SEAP assay and the data analysis of MTT assay at the same time. Both results were compared so as to delete the influence of cell number or the activity to SEAP, and the dose-dependent phenomenon could be anticipated in the range of drug concentration designed by the laboratory. […] Since the chemically-synthetic drugs have colors thereon, the SEAP value of drug-treatment without cells was also determined to be the background value which was deducted while treating with the drugs. The candidate drug for inhibiting telomerase on the hTERT gene expression level was evaluated and anticipated."}, "BJ1": {"test_system": "BJ1", "assay": "MTT assay in BJ1 cells", "format": "cell-based", "protocol": "A total of 2×10^3 […] cells were seeded in the 96-well cell culture plate, and incubated with DMEM (GIBCO®)/glucose mixture and Medium 199 (GIBCO®)/10% FBS/1 mM sodium pyruvate (GIBCO®)/4 mM L-glutamine (GIBCO®) mixture at a ratio of 4:1 at 37° C. for 24 hours. […] After 48 hours of drug treatment, the cultured medium were collected for performing the analysis of SEAP activity. The cells were washed with 1×PBS once immediately, and the MTT assay was performed to compare the compounds with the relative toxicity or the influence to the proliferation and activity. Mitochondria is the place for cellular respiration, and there are many reductive reactions catalyzed by dehydrogenases. MTT is a water-soluble yellow compound, and the […] will be formed after reduction. This crystal can be dissolved in the organic solvent, and has high absorbance at the wavelength of 570 nm. The higher cellular activity or more cell numbers, the more generated crystal violets. Therefore, the cellular activity and cell number can be obtained by the MTT assay. MTT solution was prepared by dissolving MTT powder in PBS solution to achieve 5 mg/ml, filtrated and stored at 4° C. Lysis buffer contained 20% (w/v) of SDS in 50% of N,N-dimethylformamide (DMF, Riedel-deHaën). After the cells were incubated in the 96-well culture plate, the original medium was discarded, 100 μl of the fresh serum-free medium per well and 25 μl of MTT solution per well were added in respectively, and the cells were further incubated in the CO2 incubator at 37° C. for 4 hours. Then, 100 μl of lysis buffer per well was added in and incubated overnight in the CO2 incubator at 37° C. The absorbance at 570 nm was determined by the ELISA reader."}}, "data": [{"smiles": "O=C1c2ccc(NC(=O)C3CCCC3)cc2C(=O)c2cc(NC(=O)C3CCCC3)ccc21", "note": "[Compound 33, 2,7-Bis(cyclopentanecarbonamido)anthraquinone]", "values": [{"measurement": "viability", "setting": "H1299; 1 µM", "value": "91 ± 12", "unit": "%"}, {"measurement": "viability", "setting": "H1299; 10 µM", "value": "77 ± 6", "unit": "%"}, {"measurement": "viability", "setting": "H1299; 100 µM", "value": "42 ± 12", "unit": "%"}, {"measurement": "viability", "setting": "BJ1; 1 µM", "value": "77 ± 1", "unit": "%"}, {"measurement": "viability", "setting": "BJ1; 10 µM", "value": "68 ± 1", "unit": "%"}, {"measurement": "viability", "setting": "BJ1; 100 µM", "value": "58 ± 1", "unit": "%"}]}]}
